From PubChem BioAssay (NCI)
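All cell lines were grown in 96-well plates and treated with compound for 48 hours. TGI: total growth inhibition.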

Experiments:
Assay in all cases: inhibition of tumour cell growth, NCI panel, 48 h
U251 CNS = test system: U251 CNS
SF-268 CNS = test system: SF-268 CNS
NCI-H226 lung = test system: NCI-H226 lung
HT29 colon = test system: HT29 colon
SNB-75 CNS = test system: SNB-75 CNS
EKVX NSCLC = test system: EKVX NSCLC
MOLT-4 leukemia = test system: MOLT-4 leukemia
SK-OV-3 ovarian = test system: SK-OV-3 ovarian
SK-MEL-28 melanoma = test system: SK-MEL-28 melanoma
MALME-3M melanoma = test system: MALME-3M melanoma
OVCAR-3 ovarian = test system: OVCAR-3 ovarian
UACC-257 melanoma = test system: UACC-257 melanoma
CAKI-1 renal = test system: CAKI-1 renal
SNB-19 CNS = test system: SNB-19 CNS
K-562 leukemia = test system: K-562 leukemia
UACC-62 melanoma = test system: UACC-62 melanoma
RPMI-8226 leukemia = test system: RPMI-8226 leukemia
786-0 renal = test system: 786-0 renal
M19-MEL melanoma = test system: M19-MEL melanoma
NCI-H522 lung = test system: NCI-H522 lung
NCI-H23 lung = test system: NCI-H23 lung
IGROV1 ovarian = test system: IGROV1 ovarian
HOP-18 NSCLC = test system: HOP-18 NSCLC
COLO 205 colon = test system: COLO 205 colon
M14 melanoma = test system: M14 melanoma
OVCAR-8 ovarian = test system: OVCAR-8 ovarian
TK-10 renal = test system: TK-10 renal
KM20L2 colon = test system: KM20L2 colon
OVCAR-5 ovarian = test system: OVCAR-5 ovarian
HOP-62 NSCLC = test system: HOP-62 NSCLC
LOX IMVI melanoma = test system: LOX IMVI melanoma
SF-295 CNS = test system: SF-295 CNS
SK-MEL-2 melanoma = test system: SK-MEL-2 melanoma
KM12 colon = test system: KM12 colon
SK-MEL-5 melanoma = test system: SK-MEL-5 melanoma
SF-539 CNS = test system: SF-539 CNS
LXFL 529 NSCLC = test system: LXFL 529 NSCLC
UO-31 renal = test system: UO-31 renal
OVCAR-4 ovarian = test system: OVCAR-4 ovarian
ACHN renal = test system: ACHN renal
HCT-15 colon = test system: HCT-15 colon
DMS 273 small cell lung = test system: DMS 273 small cell lung
SN12C renal = test system: SN12C renal
HCC-2998 colon = test system: HCC-2998 colon
SW-620 colon = test system: SW-620 colon
HCT-116 colon = test system: HCT-116 colon
DMS 114 small cell lung = test system: DMS 114 small cell lung
SNB-78 CNS = test system: SNB-78 CNS
HOP-92 NSCLC = test system: HOP-92 NSCLC
RXF 393 renal = test system: RXF 393 renal
NCI-H460 lung = test system: NCI-H460 lung
XF 498 CNS = test system: XF 498 CNS
A498 renal = test system: A498 renal
CCRF-CEM leukemia = test system: CCRF-CEM leukemia
DLD-1 colon = test system: DLD-1 colon
HL-60(TB) leukemia = test system: HL-60(TB) leukemia
A549 NSCLC = test system: A549 NSCLC
SR leukemia = test system: SR leukemia

`O=C1C(=O)N(c2ccc(Cl)cc2)C(=O)C(=O)C1c1nc2ccccc2s1` gave a TGI (U251 CNS) of over 100 µM, a TGI (SF-268 CNS) of over 100 µM and a TGI (NCI-H226 lung) of over 100 µM. For the same molecule, the TGI (HT29 colon) was over 100 µM, the TGI (SNB-75 CNS) was over 100 µM and the TGI (EKVX NSCLC) was over 100 µM. For the same molecule, the TGI (MOLT-4 leukemia) was over 100 µM, the TGI (SK-OV-3 ovarian) was over 100 µM and the TGI (SK-MEL-28 melanoma) was over 100 µM. The TGI (MALME-3M melanoma) was over 100 µM, the TGI (OVCAR-3 ovarian) was over 100 µM and the TGI (UACC-257 melanoma) was over 100 µM. The TGI (CAKI-1 renal) was over 100 µM, the TGI (SNB-19 CNS) was over 100 µM and the TGI (K-562 leukemia) was over 100 µM. It also gave a TGI (UACC-62 melanoma) of over 100 µM, a TGI (RPMI-8226 leukemia) of over 100 µM and a TGI (786-0 renal) of over 100 µM. The TGI (M19-MEL melanoma) was over 100 µM, the TGI (NCI-H522 lung) was over 100 µM and the TGI (NCI-H23 lung) was over 100 µM. The TGI (IGROV1 ovarian) was over 100 µM, the TGI (HOP-18 NSCLC) was over 100 µM and the TGI (COLO 205 colon) was over 100 µM. For the same molecule, the TGI (M14 melanoma) was over 100 µM, the TGI (OVCAR-8 ovarian) was over 100 µM and the TGI (TK-10 renal) was over 100 µM. For the same molecule, the TGI (KM20L2 colon) was over 100 µM, the TGI (OVCAR-5 ovarian) was over 100 µM and the TGI (HOP-62 NSCLC) was over 100 µM. For the same molecule, the TGI (LOX IMVI melanoma) was over 100 µM, the TGI (SF-295 CNS) was over 100 µM and the TGI (SK-MEL-2 melanoma) was over 100 µM. For the same molecule, the TGI (KM12 colon) was over 100 µM, the TGI (SK-MEL-5 melanoma) was over 100 µM and the TGI (SF-539 CNS) was over 100 µM. For the same molecule, the TGI (LXFL 529 NSCLC) was over 100 µM, the TGI (UO-31 renal) was over 100 µM and the TGI (OVCAR-4 ovarian) was over 100 µM. For the same molecule, the TGI (ACHN renal) was over 100 µM, the TGI (HCT-15 colon) was over 100 µM and the TGI (DMS 273 small cell lung) was over 100 µM. The TGI (SN12C renal) was over 100 µM, the TGI (HCC-2998 colon) was over 100 µM and the TGI (SW-620 colon) was over 100 µM. For the same molecule, the TGI (HCT-116 colon) was over 100 µM, the TGI (DMS 114 small cell lung) was over 100 µM and the TGI (SNB-78 CNS) was over 100 µM. It also gave a TGI (HOP-92 NSCLC) of over 100 µM, a TGI (RXF 393 renal) of over 100 µM and a TGI (NCI-H460 lung) of over 100 µM. The TGI (XF 498 CNS) was over 100 µM.

Molecule `O=C1C[C@@H]2[C@@H](CCC23CC3)N1` has a TGI (U251 CNS) of over 100 µM, a TGI (SF-268 CNS) of over 100 µM and a TGI (NCI-H226 lung) of over 100 µM. It also gave a TGI (HT29 colon) of over 100 µM, a TGI (SNB-75 CNS) of over 100 µM and a TGI (EKVX NSCLC) of over 100 µM. The TGI (SK-OV-3 ovarian) was over 100 µM, the TGI (SK-MEL-28 melanoma) was over 100 µM and the TGI (MALME-3M melanoma) was over 100 µM. It also gave a TGI (OVCAR-3 ovarian) of over 100 µM, a TGI (UACC-257 melanoma) of over 100 µM and a TGI (CAKI-1 renal) of over 100 µM. It also gave a TGI (SNB-19 CNS) of over 100 µM, a TGI (K-562 leukemia) of over 100 µM and a TGI (UACC-62 melanoma) of over 100 µM. For the same molecule, the TGI (A498 renal) was over 100 µM, the TGI (RPMI-8226 leukemia) was over 100 µM and the TGI (786-0 renal) was over 100 µM. For the same molecule, the TGI (M19-MEL melanoma) was over 100 µM, the TGI (NCI-H522 lung) was over 100 µM and the TGI (CCRF-CEM leukemia) was over 100 µM. It also gave a TGI (DLD-1 colon) of over 100 µM, a TGI (NCI-H23 lung) of over 100 µM and a TGI (IGROV1 ovarian) of over 100 µM. For the same molecule, the TGI (HOP-18 NSCLC) was over 100 µM, the TGI (COLO 205 colon) was over 100 µM and the TGI (M14 melanoma) was over 100 µM. The TGI (OVCAR-8 ovarian) was over 100 µM, the TGI (TK-10 renal) was over 100 µM and the TGI (KM20L2 colon) was over 100 µM. For the same molecule, the TGI (OVCAR-5 ovarian) was over 100 µM, the TGI (HOP-62 NSCLC) was over 100 µM and the TGI (LOX IMVI melanoma) was over 100 µM. For the same molecule, the TGI (HL-60(TB) leukemia) was over 100 µM, the TGI (SF-295 CNS) was over 100 µM and the TGI (SK-MEL-2 melanoma) was over 100 µM. It also gave a TGI (KM12 colon) of over 100 µM, a TGI (SK-MEL-5 melanoma) of over 100 µM and a TGI (SF-539 CNS) of over 100 µM. The TGI (LXFL 529 NSCLC) was over 100 µM, the TGI (UO-31 renal) was over 100 µM and the TGI (OVCAR-4 ovarian) was over 100 µM. It also gave a TGI (A549 NSCLC) of over 100 µM, a TGI (DMS 273 small cell lung) of over 100 µM and a TGI (SN12C renal) of over 100 µM. The TGI (HCC-2998 colon) was over 100 µM, the TGI (SW-620 colon) was over 100 µM and the TGI (HCT-116 colon) was over 100 µM. It also gave a TGI (DMS 114 small cell lung) of over 100 µM, a TGI (SNB-78 CNS) of over 100 µM and a TGI (RXF 393 renal) of over 100 µM. The TGI (NCI-H460 lung) was over 100 µM.

`CCSCN(C)c1nc(N(C)C)nc(N(C)C)n1` gave a TGI (U251 CNS) of over 100 µM, a TGI (SF-268 CNS) of over 100 µM and a TGI (HT29 colon) of over 100 µM. The TGI (SNB-75 CNS) was over 100 µM, the TGI (EKVX NSCLC) was over 100 µM and the TGI (MOLT-4 leukemia) was over 100 µM. For the same molecule, the TGI (SK-OV-3 ovarian) was over 100 µM, the TGI (SR leukemia) was over 100 µM and the TGI (SK-MEL-28 melanoma) was over 100 µM. It also gave a TGI (MALME-3M melanoma) of over 100 µM, a TGI (OVCAR-3 ovarian) of over 100 µM and a TGI (UACC-257 melanoma) of over 100 µM. For the same molecule, the TGI (CAKI-1 renal) was over 100 µM, the TGI (SNB-19 CNS) was over 100 µM and the TGI (K-562 leukemia) was over 100 µM. It also gave a TGI (UACC-62 melanoma) of over 100 µM, a TGI (A498 renal) of over 100 µM and a TGI (RPMI-8226 leukemia) of over 100 µM. It also gave a TGI (786-0 renal) of over 100 µM, a TGI (M19-MEL melanoma) of over 100 µM and a TGI (NCI-H522 lung) of 91.4 µM. For the same molecule, the TGI (CCRF-CEM leukemia) was over 100 µM, the TGI (DLD-1 colon) was over 100 µM and the TGI (NCI-H23 lung) was over 100 µM. For the same molecule, the TGI (IGROV1 ovarian) was over 100 µM, the TGI (HOP-18 NSCLC) was over 100 µM and the TGI (COLO 205 colon) was over 100 µM. The TGI (M14 melanoma) was over 100 µM, the TGI (OVCAR-8 ovarian) was over 100 µM and the TGI (TK-10 renal) was over 100 µM. For the same molecule, the TGI (KM20L2 colon) was over 100 µM, the TGI (OVCAR-5 ovarian) was over 100 µM and the TGI (HOP-62 NSCLC) was over 100 µM. For the same molecule, the TGI (LOX IMVI melanoma) was over 100 µM, the TGI (HL-60(TB) leukemia) was 81.9 µM and the TGI (SF-295 CNS) was over 100 µM. The TGI (SK-MEL-2 melanoma) was over 100 µM, the TGI (KM12 colon) was over 100 µM and the TGI (SK-MEL-5 melanoma) was over 100 µM. For the same molecule, the TGI (SF-539 CNS) was over 100 µM, the TGI (LXFL 529 NSCLC) was over 100 µM and the TGI (UO-31 renal) was over 100 µM. For the same molecule, the TGI (OVCAR-4 ovarian) was over 100 µM, the TGI (A549 NSCLC) was over 100 µM and the TGI (ACHN renal) was over 100 µM. The TGI (HCT-15 colon) was over 100 µM, the TGI (DMS 273 small cell lung) was over 100 µM and the TGI (SN12C renal) was over 100 µM. For the same molecule, the TGI (HCC-2998 colon) was over 100 µM, the TGI (SW-620 colon) was over 100 µM and the TGI (HCT-116 colon) was over 100 µM. For the same molecule, the TGI (DMS 114 small cell lung) was 89.7 µM, the TGI (SNB-78 CNS) was over 100 µM and the TGI (HOP-92 NSCLC) was over 100 µM. The TGI (RXF 393 renal) was 61.3 µM and the TGI (NCI-H460 lung) was over 100 µM.
